Read-outs that look alike come from different tables or passages of the source.
Assays:
[1] = target: T1, Gastrin receptor (gastric glands) (Cavia porcellus, UniProt H0VZC5); test: Gastrin Receptor Binding in Guinea Pig Gastric Glands; design: species or system guinea pig (male Hartley); conditions: 25° C., 30 minutes
T1 construct: The washed guinea pig gastric glands prepared as above were resuspended; from tissue; host or cells: guinea pig gastric mucosal glands (male Hartley)
T1 sequence (H0VZC5 1-426): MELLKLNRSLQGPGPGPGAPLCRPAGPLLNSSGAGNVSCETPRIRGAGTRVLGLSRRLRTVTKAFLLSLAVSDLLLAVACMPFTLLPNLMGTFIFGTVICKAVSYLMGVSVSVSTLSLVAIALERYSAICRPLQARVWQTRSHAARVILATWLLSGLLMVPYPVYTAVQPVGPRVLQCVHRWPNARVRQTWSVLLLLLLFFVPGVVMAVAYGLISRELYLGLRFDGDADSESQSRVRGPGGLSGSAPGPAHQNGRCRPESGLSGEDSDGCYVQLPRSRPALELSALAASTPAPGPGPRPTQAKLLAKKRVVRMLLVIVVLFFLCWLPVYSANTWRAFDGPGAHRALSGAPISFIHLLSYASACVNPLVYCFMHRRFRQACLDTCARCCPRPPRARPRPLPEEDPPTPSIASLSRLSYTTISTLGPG

CCK receptor (pancreas) = target: T2, CCK receptor (pancreas) (Rattus norvegicus, UniProt P30551); test: CCK Receptor Binding (Pancreas): inhibition of ^125 I-CCK-33 binding; design: species or system Male Sprague-Dawley rats; conditions: rat pancreas membranes, ^125 I-CCK-33, 37° C., 30 minutes
T2 construct: The whole pancreas was dissected free of fat tissue and was homogenized; from tissue; host or cells: rat pancreas membranes (Sprague-Dawley)
T2 sequence (P30551 1-444): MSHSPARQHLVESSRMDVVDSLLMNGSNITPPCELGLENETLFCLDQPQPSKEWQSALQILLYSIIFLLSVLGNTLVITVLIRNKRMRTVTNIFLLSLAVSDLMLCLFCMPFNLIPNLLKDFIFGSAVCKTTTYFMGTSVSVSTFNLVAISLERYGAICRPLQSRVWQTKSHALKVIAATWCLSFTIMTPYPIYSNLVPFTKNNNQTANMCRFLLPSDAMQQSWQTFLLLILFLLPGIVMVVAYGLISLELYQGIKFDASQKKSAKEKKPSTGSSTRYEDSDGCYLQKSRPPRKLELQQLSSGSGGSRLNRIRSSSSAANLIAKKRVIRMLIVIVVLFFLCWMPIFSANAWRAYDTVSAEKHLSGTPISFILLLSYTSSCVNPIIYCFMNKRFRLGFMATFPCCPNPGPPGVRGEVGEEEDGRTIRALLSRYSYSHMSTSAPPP
How it was run: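 Rat (male Sprague-Dawley) pancreatic membranes in 50 mM Tris HCl pH 7.7 with DTT, bacitracin, PMSF and o-phenanthroline; ^125I-Bolton Hunter-labelled CCK-33 as radioligand. Incubation 30 min at 37° C, separation by centrifugation, pellet gamma-counted; Scatchard analysis by diluting ^125I-CCK-33 with increasing CCK-33.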

[2] = target: T3, CCK receptor (brain, cerebral cortex) (Cavia porcellus, UniProt H0VZC5); test: biochemical; assay type: binding, Male Hartley guinea pigs; conditions: guinea pig cerebral cortex, ^125 I-CCK-33, 25° C., 2 hours
T3 construct: Cerebral cortex was dissected and used as a receptor source; from tissue; host or cells: guinea pig cerebral cortex membranes (male Hartley)
T3 sequence (H0VZC5 1-426): T1 sequence (H0VZC5 1-426)
How it was run: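 Guinea pig cerebral cortex homogenate as receptor source, with radiolabeled CCK-33 in HEPES buffer containing MgCl2, bacitracin, EGTA and 0.4% BSA. Incubation 2 h at 25°C; bound ligand pelleted by centrifugation and gamma-counted.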

[3] = ^125 I-gastrin, read-out: IC50 ^125 I-Gastrin Gastric Glands
[4] = read-out: IC50 ^125 I-CCK Brain
[5] = read-out: IC50 ^125 I-CCK Pancreas
[6] = IC50 ^125 I-Gastrin Gastric Glands

Q: With `CN1C(=O)C(C(=O)Nc2ccc(Cl)cc2)N=C(c2ccccc2)c2ccccc21` (stereo not drawn) [Example 197, N-(4-Chlorphenyl)-2,3-dihydro-1-methyl-2-oxo-5-phenyl-1H-1,4-benzodiazepine-3-carboxamide] as the molecule, how does the IC50 [1, 3] read?
A: 10000 nM

Q: What about the IC50 (CCK receptor (pancreas); IC50 ^125 I-CCK Pancreas) of the same molecule?
A: 1900 nM

Q: What about the IC50 [2, 4] of the same molecule?
A: 5900 nM

Q: `CN1C(=O)C(Cc2cn(C)c3ccccc23)N=C(c2ccccc2)c2ccccc21` (stereo not drawn) [Example 200, 1,3-Dihydro-1-methyl-3-((1-methyl-1H-indol-3-yl)methyl)-5-phenyl-2H-1,4-benzodiazepin-2-one] was tested. Which IC50 [1, 3] did it give?
A: 67000 nM

Q: And the IC50 (CCK receptor (pancreas); IC50 ^125 I-CCK Pancreas)?
A: 100 nM

Q: What about the IC50 [2, 4] of the same molecule?
A: 63000 nM

Q: `O=C(O)CN1C(=O)C(NC(=O)Nc2ccc(Cl)cc2)N=C(c2ccccc2)c2ccccc21` (stereo not drawn) [Example 202, 3-((((4-Chlorophenyl)amino)carbonyl)amino)-2,3-dihydro-2-oxo-5-phenyl-1H-1,4-benzodiazepine-1-acetic acid] was tested. Which IC50 [1, 3] did it give?
A: 120 nM

Q: What about the IC50 (CCK receptor (pancreas); [5]) of the same molecule?
A: 56 nM

Q: What about the IC50 [2, 4] of the same molecule?
A: 72 nM

Q: With `CN1C(=O)[C@@H](NC(=O)c2ccc(C(F)(F)F)cc2)N=C(c2ccccc2)c2ccccc21` [Example 203, (S)-N-(2,3-Dihydro-1-methyl-2-oxo-5-phenyl-1H-1,4-benzodiazepin-3-yl)-4-(trifluoromethyl)-benzamide] as the molecule, how does the IC50 [1, 3] read?
A: 6200 nM

Q: And the IC50 (CCK receptor (pancreas); [5])?
A: 1.3 nM

Q: And the IC50 ([2]; IC50 ^125 I-CCK Brain)?
A: 4600 nM

Q: With `CCOC(=O)CN1C(=O)C(NC(=O)Nc2ccc(Cl)cc2)N=C(c2ccccc2)c2ccccc21` (stereo not drawn) [Example 204, 3-((((4-Chlorophenyl)amino)carbonyl)amino)-2,3-dihydro-2-oxo-5-phenyl-1H-1,4-benzodiazepine-1-acetic acid ethyl ester] as the molecule, how does the IC50 [1, 6] read?
A: 3.3 nM

Q: What about the IC50 (CCK receptor (pancreas); [5]) of the same molecule?
A: 370 nM

Q: And the IC50 ([2]; IC50 ^125 I-CCK Brain)?
A: 1 nM

Q: How did the IC50 [1, 3] turn out when `CCOC(=O)CN1C(=O)C(NC(=O)NC(C)C)N=C(c2ccccc2F)c2ccccc21` (stereo not drawn) [Example 205, 5-(2-Fluorophenyl)-2,5-dihydro-3-((((1-methylethyl)amino)carbonyl)amino)-2-oxo-1H-1,4-benzodiazepine-1-acetic acid ethyl ester] was run?
A: 33000 nM

Q: What about the IC50 (CCK receptor (pancreas); IC50 ^125 I-CCK Pancreas) of the same molecule?
A: 35000 nM

Q: What about the IC50 [2, 4] of the same molecule?
A: > 300 nM

Q: Which results are given for `CN1C(=O)[C@H](NC(=O)c2ccc(C(F)(F)F)cc2)N=C(c2ccccc2)c2ccccc21` [Example 207, (R)-N-(2,3-Dihydro-1-methyl-2-oxo-5-phenyl-1H-1,4-benzodiazepin-3-yl)-4-(trifluoromethyl)-benzamide]?
A: IC50 [1, 3]: 4200 nM; IC50 (CCK receptor (pancreas); [5]): 115000 nM; IC50 ([2]; IC50 ^125 I-CCK Brain): 3300 nM

Q: With `O=C(Nc1ccc(Cl)cc1)NC1N=C(c2ccccc2)c2ccccc2N(CC(=O)OCc2ccccc2)C1=O` (stereo not drawn) [Example 208, 3-((((4-Chlorophenyl)amino)carbonyl)amino)-2,3-dihydro-2-oxo-5-phenyl-1H-1,4-benzodiazepine-1-acetic acid phenylmethyl ester] as the molecule, how does the IC50 [1, 3] read?
A: 140 nM

Q: And the IC50 (CCK receptor (pancreas); [5])?
A: 1300 nM

Q: And the IC50 [2, 4]?
A: 44 nM

Q: Which IC50 [1, 3] does the source give for `CCOC(=O)CN1C(=O)C(NC(=O)OCc2ccccc2)N=C(c2ccccc2)c2ccccc21` (stereo not drawn) [Example 209, 2,3-Dihydro-2-oxo-5-phenyl-3-(((phenylmethoxy)carbonyl)amino)-1H-1,4-benzodiazepine-1-acetic acid ethyl ester] here?
A: 300 nM

Q: What about the IC50 (CCK receptor (pancreas); IC50 ^125 I-CCK Pancreas) of the same molecule?
A: 2200 nM

Q: And the IC50 [2, 4]?
A: 300 nM

Q: For `CN1C(=O)[C@@H](Cc2c[nH]c3ccccc23)N=C(c2ccccc2)c2ccccc21` [Example 210, (R)-1,3-Dihydro-3-(1H-indol-3-ylmethyl)-1-methyl-5-phenyl-2H-1,4-benzodiazepin-2-one], which IC50 [1, 6] is on record?
A: 21000 nM

Q: What about the IC50 (CCK receptor (pancreas); IC50 ^125 I-CCK Pancreas) of the same molecule?
A: 300 nM

Q: And the IC50 ([2]; IC50 ^125 I-CCK Brain)?
A: 10000 nM

Q: `O=C(CN1C(=O)C(NC(=O)OCc2ccccc2)N=C(c2ccccc2)c2ccccc21)NCc1ccccc1` (stereo not drawn) [Example 212, (2,3-Dihydro-2-oxo-1-(2-oxo-2-((phenylmethyl)amino)ethyl)-5-phenyl-1H-1,4-benzodiazepin-3-yl)-carbamic acid phenylmethyl ester] was tested. Which IC50 [1, 3] did it give?
A: 600 nM

Q: What about the IC50 (CCK receptor (pancreas); IC50 ^125 I-CCK Pancreas) of the same molecule?
A: 1900 nM

Q: What about the IC50 [2, 4] of the same molecule?
A: 400 nM

Source: patent US4820834A, “Benzodiazepine analogs” (priority 1987, dated 1989)
